Test results taken from paper PMC12009420, “Dynamically chiral phosphonic acid-type metallo-β-lactamase inhibitors” (Communications Chemistry, 2025).
Read-outs that look alike come from different tables or passages of the source.

Experiments:
VIM-2 [1] = target: T1, VIM-2 (Escherichia coli, UniProt Q5U7L7); experiment: Enzymatic metallo-β-lactamase assay on purified VIM-2; type: biochemical; details: for Ki: approximated from Dixon plots (1/v vs [I]) at one constant substrate concentration, ± SE, read-out: Estimated inhibition constant Ki VIM-2; for logIC50 VIM-2: log of IC50, ± SEM of logIC50; for IC50: purified enzyme 1 nM, nitrocefin 15 μM, pH 7.2, 25 °C
Description: (§1) A few inhibitors were tested up to 1600 μM to ensure nearly complete inhibition. Solutions of 100 μL consisting of buffer, purified enzyme (1 nM for GIM-1 and VIM-2, 5 nM for NDM-1), inhibitor and reporter substrate nitrocefin (15 μM for VIM-2, 2 μM for GIM-1) or imipenem (30 μM for NDM-1) were incubated in triplicates on a 96 well plate for 5 min at 25 °C. Buffer solution consisted of 50 mM HEPES pH 7.2, 50 μM ZnSO4 and 0.4 mg/ml bovine serum albumine. Inhibitors were dissolved in DMSO but diluted to assure <2% DMSO in measured assay. Absorbance was measured at 482 nm (nitrocefin) and 300 nm (imipenem) on a SpectraMax M4 spectrophotometer. The initial velocity at each inhibitor concentration was analyzed in GraphPad Prism v9.3.1 and fitted to dose-response curves by non-linear regression (log [inhibitor] vs response) used to calculate IC50 (Supplementary Tables S2–5).

GIM-1 [2] = target: T2, GIM-1 (Pseudomonas aeruginosa, UniProt Q704V1); experiment: Enzymatic metallo-β-lactamase assay on purified GIM-1; type: biochemical; details: for logIC50 GIM-1: log of IC50, ± SEM of logIC50; for IC50: purified enzyme 1 nM, nitrocefin 2 μM, pH 7.2, 25 °C
Description: as §1

MTT cytotoxicity assay = type: cell-based; details: human, HepG2 cells
Description: Cytotoxic activity of the compounds was measured through the MTT colorimetric assay as previously described[60] using the Colorimetric (MTT) Kit for Cell Survival and Proliferation (Merck/Millipore; Darmstadt, Germany). HepG2 cells (human hepatocellular carcinoma cell line) were kept in penicillin/streptomycin-free medium overnight and then they were treated with the compounds for 24 h. Subsequently, the MTT reagent was added to the cells and after 3 h of incubation, MTT-derived formazan crystals were solubilized in acidified isopropanol (0.1 mL isopropanol with 0.04 N HCl). Absorbance was measured with multiscan spectrophotometer (Thermo Fisher Scientific) at 530 nm test and 630 nm reference wavelengths. Cell viability was expressed as the percentage of viable, untreated cells. CC50 values were determined with GraphPad Prism software (v9.3.1) and adjusted to dose-response curves by non-linear regression (Supplementary Table S7).
8. Cytotoxocity against HepG2 cells
Table S7. CC50 values and viability curves of metallo-β-lactamase inhibitors tested on HepG2 […]
cells. […]
range. Data are shown as % via bility values ± SEM (n=4). Calculations were done using […]
Inhibitors CC50 (μM) HepG2 […]

[3] = Long term stability in buffer with 2.5% DMSO (LC-MS); type: physicochemical; details: 20 mM KPO4, 0.1 mM ZnCl2, pH 7.0 + 2.5% DMSO; LC-MS 254 nm
Excerpt: Reagents, reactants, solvents and drying agents for synthesis, work-up and purification were purchased from commercial vendors (Sigma-Aldrich, VWR, Merck, Fluorochem, Thermo Fisher Scientific, Solveco), and if not stated otherwise they were used without further purification. Reactions and long term stability of the final compounds in buffer were monitored using LC-MS (Agilent 1260 Infinity II) equipped with an ESI-Q detector (Infinitylab LC-MSD) using Agilent InfinityLab Poroshell 120 C18 columns (2.7 μm, ϕ 2.1 mm L 50 mm or 2.7 μm, ϕ 4.6 mm L 50 mm). The intermediates were purified using VWR silica gel 60 (40–63 μm) with a Biotage Isolera One flash column chromatography instrument. The final products were purified with preparative RP-HPLC (VWR LaPrep P110) with single wavelength detection (254 nm), using a Kinetex C8 column (5 μm, 100 Å, ϕ 21.2 mm L 250 mm) and gradients of CH3CN/H2O + 0.1% formic acid as the mobile phase at a 10 mL/min flow rate. Analytical HPLC data were acquired on a VWR LaChrome ELITE system using an ACE3 C8 (3 μm, 300 Å, ϕ 3.0 mm L 100 mm) or a Kinetex C18 columns (5 μm, 100 Å, ϕ 3.0 mm L 150 mm). NMR spectra were recorded on a Varian Agilent MR400-DD2 400 MHz spectrometer equipped with a OneNMR probe, Bruker Avance Neo 500 MHz spectrometer equipped with a cryogenic TXO probe, or a Bruker Avance Neo 600 MHz spectrometer equipped with a TCI cryogenic probe. The chemical shifts are reported using the residual solvent signal as an indirect reference to TMS.
4. Long term stability of the final compounds in buffer with 2.5% DMSO
The long term stability of the final compounds in buffer (20 mM KPO4, 0.1 mM ZnCl2, pH 7.0 + 2.5% DMSO) were monitored using LC-MS (Agilent 1260 Infinity II) equipped with an ESI-Q detector (Infinitylab LC-MSD) using Agilent InfinityLab Poroshell 120 C18 column (2.7 μm, ϕ 4.6 mm L 50 mm) at 254 nm with a 7 min long gradient method (5% to 95% CH3CN) of CH3CN/H2O + 0.1% formic acid as the mobile phase at a 1.0 mL/min flow rate. The samples were measured right after dissolving them in buffer, and after 1 month of keeping the same samples dissolved in the same buffer. The main peaks (> 95%) and impurities with > 1% are […]
Figure S14. Compound 5a right after dissolving it in buffer.
Figure S15. Compound 5a kept in buffer for 1 month. […]

15N-labelled VIM-2 = target: T3, 15N-labelled VIM-2 (Escherichia coli, UniProt Q5U7L7); experiment: 1H,15N-HSQC titration of VIM-2; type: binding; details: 10 equivalents of compound, 600 MHz, pH 7.0, 25 °C
T3 construct: made in house
Description: (§2) The ^1H, ^15N-HSQC spectra for the titration experiments were recorded on a Bruker Avance Neo 600 MHz spectrometer equipped with a 5 mm TCI cryogenic probe at 25 °C. The U-[^15N]-labeled VIM-2 was prepared in a buffer of 20 mM KPO4, 0.1 mM ZnCl2, at pH 7.0, containing 85% H2O/15% D2O at a concentration of 0.25 mM. The U-[^15N]-labeled NDM-1 was used in a buffer of 20 mM HEPES, 0.1 mM ZnCl2, at pH 7.0, containing 85% H2O/15% D2O at a concentration of 0.25 mM. The ligands 5d, 5g, 5i, 5j (for VIM-2 titrations) and 5 f (for NDM-1 titration) were dissolved in the same buffer as the corresponding enzymes. Spectra were recorded using solvent suppression, 1024 points in f1, 16 transients, 512 increments in f2 and a relaxation delay of 0.2 s. The titrations were carried out with 0, 0.25, 0.50, 1.00, 1.50, 2.25, 3.00, 4.00, 5.00, 7.00, 10.0 equivalents of the inhibitors.
Figure S47. Superimposition of the 1H,15N-HSQC spectrum (600 MHz, pH 7.0, 25 °C) of
VIM-2 in the absence (blue) and in the presence (green) of 10 molar equivalent of compound
5j. Buffer: 20 mM KPO4, 0.1 mM ZnCl2, with 15% D2O.
(§3) Chemical shift perturbation values (CSP, ΔδNH) were calculated as the weighted average of
(§4) the chemical shift changes in f1 (ΔδN) and f2 (ΔδH) dimensions using the following equation 8:
∆δ = √∆δ 2 + ( N ); R = 6.5
Figure S48. Linear regression of the chemical shift perturbations of compound 5g (IC50 =
12 μM) as a function of the chemical shift perturbations of compounds 5c (yellow circle), 5d
(grey square), 5i (green triangle) and 5j (blue circle) for VIM-2. The data of the studied […]

GIM-1 [4] = target: T2, GIM-1; experiment: Enzymatic metallo-β-lactamase assay on purified GIM-1; type: biochemical; details: approximated from Dixon plots (1/v vs [I]) at one constant substrate concentration; ± SE; read-out: Estimated inhibition constant Ki GIM-1
NDM-1 [5] = target: T4, NDM-1 (Klebsiella pneumoniae, UniProt C7C422); experiment: Enzymatic metallo-β-lactamase assay on purified NDM-1; type: biochemical; details: for Ki: approximated from Dixon plots (1/v vs [I]) at one constant substrate concentration, ± SE, read-out: Estimated inhibition constant Ki NDM-1; for logIC50 NDM-1: log of IC50, ± SEM of logIC50; for IC50: purified enzyme 5 nM, imipenem 30 μM, pH 7.2, 25 °C
Description: as §1

15N-labeled NDM-1 = target: T5, 15N-labeled NDM-1 (Klebsiella pneumoniae, UniProt C7C422); experiment: 1H,15N-HSQC titration of NDM-1; type: binding; details: 10 equivalents of compound, 600 MHz, pH 7.0, 25 °C
T5 construct: made in house
Description: as §2, with “inhibitors. […]” for “inhibitors.”
as §3, §4
∆δ = √∆δ 2 + ( N ); R = 6.5 […]

VIM-2 [6] = target: T1, VIM-2; details: cited from earlier work
NDM-1 [7] = target: T4, NDM-1; details: read-out: IC50 against NDM-1; cited from earlier work
[8] = read-out: Kd, affinity to zinc ions; cited from earlier work
[9] = HepG2, MTT, read-out: CC50 (in viability curve)
[10] = MTT, 0.0025 mM - 1mM concentration range, read-out: Cytotoxicity CC50 HepG2

T4 sequence (C7C422 29-270, looked up, species assumed): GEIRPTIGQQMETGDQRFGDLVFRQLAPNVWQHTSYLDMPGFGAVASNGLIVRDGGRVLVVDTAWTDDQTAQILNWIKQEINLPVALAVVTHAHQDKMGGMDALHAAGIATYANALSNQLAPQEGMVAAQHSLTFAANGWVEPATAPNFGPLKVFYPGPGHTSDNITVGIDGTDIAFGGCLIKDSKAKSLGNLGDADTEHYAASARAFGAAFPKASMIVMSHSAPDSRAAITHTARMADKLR
T2 sequence (Q704V1 entry or part of it): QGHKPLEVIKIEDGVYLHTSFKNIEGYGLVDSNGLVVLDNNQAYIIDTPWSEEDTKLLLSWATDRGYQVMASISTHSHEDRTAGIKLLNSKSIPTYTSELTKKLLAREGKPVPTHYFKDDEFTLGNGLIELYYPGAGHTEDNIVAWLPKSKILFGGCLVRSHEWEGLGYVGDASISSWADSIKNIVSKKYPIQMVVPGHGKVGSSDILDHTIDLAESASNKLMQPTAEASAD
T5 sequence (C7C422 29-270, looked up): as the sequence (C7C422 29-270, looked up, species assumed) above

O=C(NC(c1ccccc1O)P(=O)(O)O)c1cc2ccccc2s1 (stereo not shown) [5c]
Ki (VIM-2 [1]): 71 ± 6 µM
logIC50 VIM-2 (VIM-2 [1]): 2.01 ± 0.05 μM
IC50 (VIM-2 [1]): 103 µM
logIC50 GIM-1 (GIM-1 [2]): 2.01 ± 0.09 μM
IC50 (GIM-1 [2]): 101 µM
CC50 at 24 h (MTT cytotoxicity assay; [9]): 2900 µM
CC50 at 24 h (MTT cytotoxicity assay; [10]): 2930 µM
main peak Area% kept in buffer for 1 month [3]: 97.59%
main peak Area% right after dissolving in buffer [3]: 97.20%
Mean chemical shift perturbation, VIM-2 (15N-labelled VIM-2): 0.05 ppm
Ki (GIM-1 [4]): 102 ± 10 µM

O=C(NC(c1ccccc1O)P(=O)(O)O)c1csc2ccccc12 (stereo not shown) [5d]
Ki (VIM-2 [1]): 31 ± 5 µM
logIC50 VIM-2 (VIM-2 [1]): 1.33 ± 0.03 μM
IC50 (VIM-2 [1]): 21 µM
logIC50 GIM-1 (GIM-1 [2]): 1.01 ± 0.19 μM
IC50 (GIM-1 [2]): 10 µM
CC50 at 24 h (MTT cytotoxicity assay; [9]): 4400 µM
CC50 at 24 h (MTT cytotoxicity assay; [10]): 4440 µM
main peak Area% kept in buffer for 1 month [3]: 97.15%
main peak Area% right after dissolving in buffer [3]: 97.92%
Mean chemical shift perturbation, VIM-2 (15N-labelled VIM-2): 0.04 ppm
Ki (GIM-1 [4]): 64 ± 13 µM

O=C(NC(c1ccccc1O)P(=O)(O)O)c1csc2c1CCCC2 (stereo not shown) [5f]
Ki (VIM-2 [1]): 40 ± 2 µM
logIC50 VIM-2 (VIM-2 [1]): 1.68 ± 0.05 μM
IC50 (VIM-2 [1]): 48 µM
logIC50 GIM-1 (GIM-1 [2]): 1.71 ± 0.10 μM
IC50 (GIM-1 [2]): 52 µM
Ki (NDM-1 [5]): 128 ± 58 µM
logIC50 NDM-1 (NDM-1 [5]): 1.48 ± 0.03 log10(IC50/μM)
IC50 (NDM-1 [5]): 30 µM
CC50 at 24 h (MTT cytotoxicity assay; [9]): 4800 µM
CC50 at 24 h (MTT cytotoxicity assay; [10]): 4800 µM
main peak Area% kept in buffer for 1 month [3]: 95.90%
main peak Area% right after dissolving in buffer [3]: 95.67%
Mean chemical shift perturbation, NDM-1 (15N-labeled NDM-1): 0.05 ppm

O=C(Cc1cccs1)NC(c1ccccc1O)P(=O)(O)O (stereo not shown) [5i]
Ki (VIM-2 [1]): 76 ± 8 µM
logIC50 VIM-2 (VIM-2 [1]): 1.58 ± 0.08 μM
IC50 (VIM-2 [1]): 38 µM
logIC50 GIM-1 (GIM-1 [2]): 2.28 ± 0.52 μM
IC50 (GIM-1 [2]): 189 µM
Ki (NDM-1 [5]): 1070 ± 360 µM
logIC50 NDM-1 (NDM-1 [5]): 1.94 ± 0.08 log10(IC50/μM)
IC50 (NDM-1 [5]): 87 µM
CC50 at 24 h (MTT cytotoxicity assay; [9]): 1500 µM
CC50 at 24 h (MTT cytotoxicity assay; [10]): 1490 µM
main peak Area% kept in buffer for 1 month [3]: 97.58%
main peak Area% right after dissolving in buffer [3]: 96.45%
Mean chemical shift perturbation, VIM-2 (15N-labelled VIM-2): 0.04 ppm
Ki (GIM-1 [4]): 348 ± 28 µM

O=C(Cc1ccsc1)NC(c1ccccc1O)P(=O)(O)O (stereo not shown) [5j]
Ki (VIM-2 [1]): 88 ± 16 µM
logIC50 VIM-2 (VIM-2 [1]): 1.57 ± 0.03 μM
IC50 (VIM-2 [1]): 37 µM
logIC50 GIM-1 (GIM-1 [2]): 2.01 ± 0.06 μM
IC50 (GIM-1 [2]): 103 µM
Ki (NDM-1 [5]): 196 ± 13 µM
logIC50 NDM-1 (NDM-1 [5]): 2.37 ± 0.07 log10(IC50/μM)
IC50 (NDM-1 [5]): 232 µM
CC50 at 24 h (MTT cytotoxicity assay; [9]): 4000 µM
CC50 at 24 h (MTT cytotoxicity assay; [10]): 3970 µM
main peak Area% kept in buffer for 1 month [3]: 96.88%
main peak Area% right after dissolving in buffer [3]: 95.28%
Mean chemical shift perturbation, VIM-2 (15N-labelled VIM-2): 0.04 ppm

O=C(O)CN(CC(=O)O)CP(=O)(O)O [N-(phosphonomethyl)-iminodiacetic acid]
IC50 (VIM-2 [6]; read-out: IC50 against VIM-2): 0.68 µM
IC50 (NDM-1 [7]): 0.91 µM
Kd [8]: 0.056 µM

NCCN[C@H]1CC[C@H](CC(=O)N[C@H]2Cc3cccc(C(=O)O)c3OB2O)CC1 [taniborbactam]
IC50 (VIM-2 [6]; Table S8, ref 35 (SI), read-out: IC50 VIM-2): 0.002 µM
IC50 (VIM-2 [6]; read-out: IC50 for VIM-2): 0.04 µM
